Values of other authors in article PMC5344293, “A phase 1 dose-escalation and expansion study of binimetinib (MEK162), a potent and selective oral MEK1/2 inhibitor” (British Journal of Cancer, 2017).
Where two headings read alike, the source gives them in different places.

Experiments:
[1] = test system: non-melanoma tumours; design: method as in Rosen et al, 2011; conditions: ref Rosen et al, 2011; cited from earlier work
[2] = test system: non-melanoma tumours; design: method as in Delord et al, 2010; conditions: ref Delord et al, 2010; cited from earlier work
[3] = test system: metastatic biliary cancer; design: method as in Bekaii-Saab et al, 2011; conditions: ref Bekaii-Saab et al, 2011; cited from earlier work
[4] = test system: non-melanoma tumours; design: method as in Adjei et al, 2008; conditions: ref Adjei et al, 2008; cited from earlier work
[5] = test system: advanced solid tumours; design: method as in Infante et al, 2012; conditions: ref Infante et al, 2012, cited from earlier work

## O=C(c1ccc(F)c(F)c1Nc1ccc(I)cc1F)N1CC(O)([C@@H]2CCCCN2)C1 [cobimetinib]
[1]
  Objective responses to single-agent treatment in non-melanoma patients: no objective responses

## O=C(NC[C@H](O)CO)c1ccncc1Nc1ccc(I)cc1F [pimasertib]
[2]
  Objective responses to single-agent treatment in non-melanoma patients: no objective responses

## Cn1cnc2c(F)c(Nc3ccc(Br)cc3Cl)c(C(=O)NOCCO)cc21 [selumetinib]
[3]
  Objective response, patients: 12%
[4]
  Objective responses to single-agent treatment in non-melanoma patients: no objective responses

## CC(=O)Nc1cccc(-n2c(=O)n(C3CC3)c(=O)c3c(Nc4ccc(I)cc4F)n(C)c(=O)c(C)c32)c1 [trametinib]
[5]; NSCLC and pancreas cancer (2 patients each)
  Non-melanoma patients with objective responses: 4 patients
[5]; all tumour types
  Patients with objective responses: 21 patients
